Source: PubChem BioAssay AID256 (DTP/NCI, 2004)
Inconclusive results and toxic doses are left out. Rule for the calls: active = survival T/C of 150% or more; inactive = T/C below 125% in these data.

Test system: CD2F1 mice, L1210 leukemia ip, survival T/C
Test: NCI In Vivo Anticancer Drug Screen. Data for tumor model L1210 Leukemia (intraperitoneal) in CD2F1 (CDF1) mice
Settings: endpoint: mean survival time, higher = longer survival
How it was run: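 Antitumor effect is scored in animals hosting a serially transplanted tumor. Values compare compound-dosed animals against vehicle-only controls as a simple quotient.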

[1] = dose: 100.0 mg/kg/injection, schedule: Q01DX009 (ip), vehicle: saline with Tween-80
[2] = dose: 200.0 mg/kg/injection, schedule: Q01DX009 (ip), vehicle: saline with Tween-80
[3] = dose: 400.0 mg/kg/injection, schedule: Q01DX009 (ip), vehicle: saline with Tween-80
[4] = dose: 100.0 mg/kg/injection, schedule: Q04DX003 (ip), vehicle: saline with Tween-80
[5] = dose: 400.0 mg/kg/injection, schedule: Q04DX003 (ip), vehicle: saline with Tween-80
[6] = dose: 200.0 mg/kg/injection, schedule: Q04DX003 (ip), vehicle: saline with Tween-80
[7] = dose: 50.0 mg/kg/injection, schedule: Q01DX009 (ip), vehicle: saline with Tween-80

Measured: T/C

OC(CC(O)(C(F)(F)F)C(F)(F)F)c1cccc(C(F)(F)F)c1 (stereo not drawn)
inactive: dose: 132.0 mg/kg/injection, schedule: Q04DX003 (ip), vehicle: other 98 % of control | dose: 200.0 mg/kg/injection, schedule: Q04DX003 (ip), vehicle: other 94 % of control | dose: 300.0 mg/kg/injection, schedule: Q04DX003 (ip), vehicle: other 93 % of control

COCC(=O)c1ccccc1
inactive: [1] 96 % of control | [2] 96 % of control | [3] 94 % of control

CCc1ccccc1NC(=O)/C=C/C(=O)O
inactive: [1] 102 % of control | [4] 98 % of control | [2] 100 % of control | [3] 102 % of control | [5] 92 % of control

CC(C)(C)[Si](OP(N)(=O)N(CCCl)CCCl)(c1ccccc1)c1ccccc1 (stereo not drawn)
inactive: dose: 15.6 mg/kg/injection, schedule: Q01DX001 (ip), vehicle: distilled water + Tween-80 102 % of control | dose: 31.3 mg/kg/injection, schedule: Q01DX001 (ip), vehicle: distilled water + Tween-80 110 % of control | dose: 62.5 mg/kg/injection, schedule: Q01DX001 (ip), vehicle: distilled water + Tween-80 110 % of control | dose: 125.0 mg/kg/injection, schedule: Q01DX001 (ip), vehicle: distilled water + Tween-80 122 % of control | dose: 250.0 mg/kg/injection, schedule: Q01DX001 (ip), vehicle: distilled water + Tween-80 111 % of control | dose: 500.0 mg/kg/injection, schedule: Q01DX001 (ip), vehicle: distilled water + Tween-80 117 % of control

CCCCc1c(C)[nH]c(=S)[nH]c1=O
inactive: [4] 91 % of control | [6] 96 % of control

O=C1c2ccccc2C(c2ccc(Br)cc2)C1Br (stereo not drawn)
inactive: [4] 97 % of control | [6] 90 % of control | [5] 100 % of control

NC(=O)c1ncn(CCCCCO)c1N
inactive: dose: 100.0 mg/kg/injection, schedule: Q01DX001 (ip), vehicle: other 91 % of control | dose: 200.0 mg/kg/injection, schedule: Q01DX001 (ip), vehicle: other 103 % of control | dose: 400.0 mg/kg/injection, schedule: Q01DX001 (ip), vehicle: other 101 % of control

O=S(=O)(Nc1ccc(NS(=O)(=O)c2ccccc2)c2ccccc12)c1ccccc1
inactive: [4] 97 % of control | [6] 91 % of control | [5] 96 % of control

Clc1ccc(CCc2ccc(Cl)cc2)cc1
inactive: [7] 102 % of control | [1] 98 % of control | [2] 102 % of control

CN(C)/N=C/c1ccc(-c2ccccc2)cc1
inactive: dose: 100.0 mg/kg/injection, schedule: Q01DX001 (ip), vehicle: saline with Tween-80 101 % of control | dose: 200.0 mg/kg/injection, schedule: Q01DX001 (ip), vehicle: saline with Tween-80 103 % of control | dose: 400.0 mg/kg/injection, schedule: Q01DX001 (ip), vehicle: saline with Tween-80 112 % of control

CCOC(=O)C(C(=O)c1ccccc1)c1cc(NS(=O)(=O)c2ccccc2)ccc1O (stereo not drawn)
inactive: dose: 132.0 mg/kg/injection, schedule: Q04DX003 (ip), vehicle: saline with Tween-80 115 % of control | [6] 106 % of control | dose: 300.0 mg/kg/injection, schedule: Q04DX003 (ip), vehicle: saline with Tween-80 103 % of control

CN(C)c1ccc(C(=C2C=CC(=[N+](C)C)C=C2)c2ccc(N(C)C)cc2)cc1 (tested in a mixture with another compound)
inactive: dose: 0.15 mg/kg/injection, schedule: Q01DX009 (ip), vehicle: saline with Tween-80 110 % of control | dose: 0.31 mg/kg/injection, schedule: Q01DX009 (ip), vehicle: saline with Tween-80 100 % of control | dose: 0.31 mg/kg/injection, schedule: Q01DX009 (ip), vehicle: suspension in saline 97 % of control | dose: 0.62 mg/kg/injection, schedule: Q01DX009 (ip), vehicle: saline with Tween-80 105 % of control | dose: 0.62 mg/kg/injection, schedule: Q01DX009 (ip), vehicle: suspension in saline 106 % of control | dose: 1.25 mg/kg/injection, schedule: Q01DX009 (ip), vehicle: saline with Tween-80 113 % of control | dose: 1.25 mg/kg/injection, schedule: Q01DX009 (ip), vehicle: suspension in saline 101 % of control | dose: 2.5 mg/kg/injection, schedule: Q01DX009 (ip), vehicle: saline with Tween-80 117 % of control | dose: 2.5 mg/kg/injection, schedule: Q01DX009 (ip), vehicle: suspension in saline 106 % of control

Nc1[nH]c(=O)[nH]c(=O)c1N
inactive: [7] 93 % of control | [1] 93 % of control | dose: 100.0 mg/kg/injection, schedule: Q04DX002 (ip), vehicle: saline 97 % of control | [4] 108 % of control | [2] 93 % of control | dose: 200.0 mg/kg/injection, schedule: Q04DX002 (ip), vehicle: saline 97 % of control | [6] 108 % of control
